One compound from patent publication US6812228B2, “Benzoxazines for use in the treatment of parkinson's disease” (Warner-Lambert Company, priority 2000, dated 2004) can be followed below.

For data set [1], the target named is T1, human muscarinic receptor subtype M1 (Homo sapiens, UniProt P11229).
T1 sequence (P11229 1-460): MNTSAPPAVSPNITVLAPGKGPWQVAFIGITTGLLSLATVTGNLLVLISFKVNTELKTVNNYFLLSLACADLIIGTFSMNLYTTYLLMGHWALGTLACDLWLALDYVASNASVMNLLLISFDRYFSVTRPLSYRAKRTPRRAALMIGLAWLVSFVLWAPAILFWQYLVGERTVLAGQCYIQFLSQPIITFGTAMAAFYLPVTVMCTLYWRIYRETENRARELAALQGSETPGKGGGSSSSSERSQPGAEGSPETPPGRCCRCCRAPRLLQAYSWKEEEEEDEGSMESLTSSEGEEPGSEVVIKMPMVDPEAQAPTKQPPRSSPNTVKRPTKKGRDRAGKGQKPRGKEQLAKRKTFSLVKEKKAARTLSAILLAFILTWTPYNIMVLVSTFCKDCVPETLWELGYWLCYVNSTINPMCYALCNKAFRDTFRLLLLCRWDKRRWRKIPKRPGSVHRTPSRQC
Briefly: Muscarinic receptor binding, displacement of [3H]-NMS, membranes from transfected CHO cells. The conditions noted are these: [3H]-NMS displacement, CHO cell membranes; tested two to four times, SEM <=10%; read-out: Muscarinic Binding Activity M1 (IC50). As to the method:
(§1) The compounds were evaluated in standard assays used to measure muscarinic receptor binding, and they were compared with other benzoxazines described in Bioorganic & Medicinal Chemistry Letters 8, 1998:1991-1996, which is incorporated herein by reference. Specifically, the compounds were evaluated for their binding affinity toward five human muscarinic receptor subtypes (M1-M5) by the method of Dorje et al., J. Pharm. Exp. Ther. 1991;256:727-733, which is incorporated herein by reference. The binding was determined by measuring the displacement of [^3H]-NMS (N-methylscopolamine) binding using membranes from transfected Chinese hamster ovary (CHO) cells.
(In general: Displacement assays read how much labelled ligand stays bound in the presence of the test substance.)

Data set [2] deals with T2, human muscarinic receptor subtype M5 (Homo sapiens, UniProt P08912).
T2 sequence (P08912 1-532): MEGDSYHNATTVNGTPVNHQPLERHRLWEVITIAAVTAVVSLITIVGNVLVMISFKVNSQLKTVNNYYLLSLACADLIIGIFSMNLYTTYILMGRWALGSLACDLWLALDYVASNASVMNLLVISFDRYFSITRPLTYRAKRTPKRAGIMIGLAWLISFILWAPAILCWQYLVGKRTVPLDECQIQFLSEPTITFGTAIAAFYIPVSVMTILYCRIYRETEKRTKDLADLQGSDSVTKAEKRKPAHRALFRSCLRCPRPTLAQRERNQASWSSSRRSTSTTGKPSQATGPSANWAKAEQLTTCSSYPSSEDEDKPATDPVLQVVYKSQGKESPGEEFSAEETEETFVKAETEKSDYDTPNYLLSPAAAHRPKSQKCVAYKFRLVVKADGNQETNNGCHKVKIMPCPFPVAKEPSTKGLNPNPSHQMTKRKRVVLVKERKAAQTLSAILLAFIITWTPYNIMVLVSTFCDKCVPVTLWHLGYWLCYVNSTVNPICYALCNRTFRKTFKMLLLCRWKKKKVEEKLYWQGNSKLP
Described as above. The conditions noted are these: [3H]-NMS displacement, CHO cell membranes; tested two to four times, SEM <=10%; read-out: Muscarinic Binding Activity M5 (IC50). As to the method:
as §1

Data set [3] concerns the target human muscarinic receptor subtype M3 (Homo sapiens, UniProt P20309). Described as above. The conditions noted are these: [3H]-NMS displacement, CHO cell membranes; tested two to four times, SEM <=10%; read-out: Muscarinic Binding Activity M3 (IC50). How it is done: as §1
Data set [4] deals with T3, human muscarinic receptor subtype M2 (Homo sapiens, UniProt P08172).
T3 sequence (P08172 1-466): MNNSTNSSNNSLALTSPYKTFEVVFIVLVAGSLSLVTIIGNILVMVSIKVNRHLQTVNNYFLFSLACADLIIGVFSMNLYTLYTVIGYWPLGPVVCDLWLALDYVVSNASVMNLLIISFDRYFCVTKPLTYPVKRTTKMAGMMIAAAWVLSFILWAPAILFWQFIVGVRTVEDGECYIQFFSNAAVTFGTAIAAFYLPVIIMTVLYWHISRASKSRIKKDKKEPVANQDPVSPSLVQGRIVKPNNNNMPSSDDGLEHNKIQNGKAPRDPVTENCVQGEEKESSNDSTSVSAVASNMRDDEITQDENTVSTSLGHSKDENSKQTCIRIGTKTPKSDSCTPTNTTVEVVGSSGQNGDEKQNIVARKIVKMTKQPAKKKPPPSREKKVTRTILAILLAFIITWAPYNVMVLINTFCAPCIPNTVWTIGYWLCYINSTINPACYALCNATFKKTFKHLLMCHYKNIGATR
Described as above. The conditions noted are these: [3H]-NMS displacement, CHO cell membranes; tested two to four times, SEM <=10%; read-out: Muscarinic Binding Activity M2 (IC50). As to the method:
as §1

Data set [5] addresses T4, human muscarinic receptor subtype M4 (Homo sapiens, UniProt P08173).
T4 sequence (P08173 1-479): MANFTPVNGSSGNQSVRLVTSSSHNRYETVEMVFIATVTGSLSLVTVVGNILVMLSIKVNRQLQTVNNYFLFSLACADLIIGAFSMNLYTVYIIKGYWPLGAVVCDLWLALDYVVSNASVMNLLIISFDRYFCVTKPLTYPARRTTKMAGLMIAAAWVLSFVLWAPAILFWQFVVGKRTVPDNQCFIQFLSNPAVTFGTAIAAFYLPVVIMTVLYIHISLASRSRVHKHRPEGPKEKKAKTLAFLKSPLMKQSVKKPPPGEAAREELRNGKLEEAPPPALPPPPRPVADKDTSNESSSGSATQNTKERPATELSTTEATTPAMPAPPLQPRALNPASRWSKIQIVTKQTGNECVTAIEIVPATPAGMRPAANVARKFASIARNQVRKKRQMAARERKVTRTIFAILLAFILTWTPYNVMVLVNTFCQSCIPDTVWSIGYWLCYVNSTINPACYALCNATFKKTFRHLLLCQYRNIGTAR
The data set is described as above. As to the method:
as §1

pIC50: −log10 of the molar value.

human muscarinic receptor subtype M3, sequence (P20309 whole entry): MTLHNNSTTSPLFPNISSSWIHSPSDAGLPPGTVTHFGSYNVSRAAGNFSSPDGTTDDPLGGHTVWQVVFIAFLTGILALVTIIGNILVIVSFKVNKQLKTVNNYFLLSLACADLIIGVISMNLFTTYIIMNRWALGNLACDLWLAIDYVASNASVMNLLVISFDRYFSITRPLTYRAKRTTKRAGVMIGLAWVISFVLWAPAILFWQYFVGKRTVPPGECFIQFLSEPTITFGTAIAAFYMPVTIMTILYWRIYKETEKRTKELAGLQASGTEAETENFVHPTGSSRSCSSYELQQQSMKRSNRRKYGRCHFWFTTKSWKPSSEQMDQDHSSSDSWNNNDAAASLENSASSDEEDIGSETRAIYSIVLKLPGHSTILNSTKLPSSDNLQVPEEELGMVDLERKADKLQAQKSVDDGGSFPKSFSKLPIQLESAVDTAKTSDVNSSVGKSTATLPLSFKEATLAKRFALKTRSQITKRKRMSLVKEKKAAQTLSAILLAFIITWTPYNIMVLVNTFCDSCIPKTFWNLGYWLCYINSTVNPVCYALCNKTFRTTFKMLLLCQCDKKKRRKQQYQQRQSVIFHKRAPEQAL

The term pIC50 denotes the negative decadic logarithm of the IC50, by convention in mol/L. Broadly, the melting point is the temperature of the solid-liquid transition. The compound `CCCc1c(C(=O)OCC)c2c3c(ccc2n1C)OC1c2ccc(SC)cc2CCN1C3` (centres unmarked) [Example 2, 3-Methyl-9-methylsulfanyl-2-propyl-11,12-dihydro-3H,6aH,13H-6-oxa-3,12a-diaza-benzo[a]cyclopent[h]anthracene-1-carboxylic acid ethyl ester] showed a melting point of 139 to 143 °C. In data set [1], the negative logarithm of the IC50 (pIC50) was 5.12. Also, the negative logarithm of the IC50 (pIC50) in data set [2] was 5.52. The pIC50 in data set [3] is 6.43. Also, the pIC50 in data set [4] is 5.15. Besides, the “binds to the M4 receptor more than to M1, M2, and M5 (selectivity)” value in data set [5] (M4 versus M1, M2 and M5) is “about 1000 fold”. Further, the “binds to the M4 receptor more than to M3 (selectivity)” value in data set [5] (M4 versus M3) was “about 52 fold”. In addition, the negative-log IC50 (pIC50) in data set [5] ([3H]-NMS displacement, CHO cell membranes, tested two to four times, SEM <=10%, read-out: Muscarinic Binding Activity M4 (IC50)) is 8.15.
